Tested on: CCl4 liver fibrosis animal
Assay: CCl4 (carbon tetrachloride)-induced liver fibrosis animal model
Format: in vivo, Actin-DsRed mice
Method: Hepatocytes appear red in Actin-DsRed mice (Stock no. #006051, Jackson Laboratory (Bar Harbor, USA)). In order to induce liver fibrosis in this mouse, CCl4 (carbon tetrachloride) was dissolved in corn oil and injected intraperitoneally twice a week at a concentration of 20% for a total of 6 weeks. Three weeks after start of CCl4 administration, vehicle and BC-KI-00053 (100 mg/kg) were administered orally, daily for three weeks. For vehicle, corn oil:polyethylene glycol 400:Tween 80:methyl cellulose (1%)=20:30:1:49 was used.
The degree of fibrosis on the surface and inside (area with a depth of 30-50 μm) of liver was detected by the Second Harmonic Generation (SHG) technique of intravial imaging (Excitation: 780 nm, Detection: 390 nm).

[1] = CCl4 6 weeks, BC-KI-00053 100 mg/kg oral daily for 3 weeks
[2] = normal animal (corn oil) + BC-KI-00053 100 mg/kg oral daily 3 weeks

Question: Which results are given for `COc1ccc(CCN(Cc2ccc(C(=O)O)cc2)c2nc3cccc(F)c3s2)cc1` [BC-KI-00053, 4-({(7-fluorobenzo[d]thiazol-2-yl)[2-(4-methoxyphenyl)ethyl]amino}methyl)benzoic acid]?
Answer: fibrosis in the surface and inside the liver (SHG imaging) [1]: greatly reduced; hepatocyte necrosis [1]: noticeably reduced; other symptoms in the liver [2]: no other symptoms; weight loss [2]: no weight loss; in vivo tolerability (normal animal + BC-KI-00053 100 mg/kg): innocuous
